# Results reported in patent publication US20240301319A1, “PERFUMING COMPOSITIONS” (FIRMNICH SA, priority 2017, published 2024).
# Experiments:
# [1] = Volatility of perfuming compounds (Tables 4 to 10), with top/middle/bottom note type; format: physicochemical
# Summary of the method: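 Note type follows from air volatility (μg/l): bottom 49–0.1, middle 99–50, top 70,000–100. Compounds are listed within watery, green, fruity, citrus, sweet, gourmand and woody families.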
# [2] = Odor threshold and odor value of perfuming compounds (Tables 4 to 10)
# [3] = note type (Top/Middle/Bottom) by volatility, perfuming compounds having a green note
# [4] = perfuming compounds having a green note
# [5] = Table 4, watery note, top, middle or bottom note
# [6] = Table 4, watery note, equals volatility divided by odor threshold
# [7] = Table 8, perfuming compounds having a sweet note
# [8] = Table 8, perfuming compounds having a sweet note, note type by volatility
# [9] = Table 9, perfuming compounds having a gourmand note, note type by volatility
# [10] = Table 6, perfuming compounds having a fruity note
# [11] = Table 6, perfuming compounds having a fruity note, note type by volatility
smiles,measurement,setting,value
N#CC(=C1CCCCC1)c1ccccc1 [CYCLOHEXYLIDENE(PHENYL)ACETONITRILE],Type,[1]; [3],Bottom
same,Volatility (μg/l air),[1]; [4],0.96 μg/l air
same,Odor Threshold (μg/l air),[2]; [4],3.31E−04 μg/l air
CCCCCCCCCC=O [DECANAL″],Volatility (μg/l air),"[1]; Table 4, watery note",466.56 μg/l air
same,Type,[1]; [5],"TOP (perfuming compounds having a volatility ranging from 70,000 to 100 μg/l in air are referred to as “top notes”)"
same,Odor Threshold (μg/l air),"[2]; Table 4, watery note",1.92E−03 μg/l air
same,Odor Value,[2]; [6],2.43E+05
C=CCSSCC=C [DIALLYL DISULFIDE],Volatility,[1]; [7],5487.52 μg/l air
same,Type,[1]; [8],Top
same,Volatility,"[1]; Table 9, gourmand note",5487.52 μg/l air
same,Type,[1]; [9],Top
same,Odor Threshold,[2]; [7],3.98E−05 μg/l air
same,Odor Value,[2]; [7],1.38E+08
same,Odor Threshold,"[2]; Table 9, gourmand note",3.98E−05 μg/l air
CCCCSCCCC [DIBUTYL SULFIDE],Type,[1]; [3],Top
same,Volatility (μg/l air),[1]; [4],2766.10 μg/l air
same,Odor Threshold (μg/l air),[2]; [4],2.34E−02 μg/l air
CCCCCCCCCCCC=O [DODECANAL],Volatility (μg/l air),"[1]; Table 4, watery note",144.79 μg/l air
same,Type,[1]; [5],"TOP (perfuming compounds having a volatility ranging from 70,000 to 100 μg/l in air are referred to as “top notes”)"
same,Odor Threshold (μg/l air),"[2]; Table 4, watery note",9.90E−04 μg/l air
same,Odor Value,[2]; [6],1.46E+05
CCCCCCCCCCCC#N [DODECANENITRILE],Volatility (μg/l air),"[1]; Table 4, watery note",56.74 μg/l air
same,Type,[1]; [5],middle (perfuming compounds having a volatility ranging from 99 to 50 μg/l in air are referred to as “middle notes”)
same,Odor Threshold (μg/l air),"[2]; Table 4, watery note",3.20E−06 μg/l air
same,Odor Value,[2]; [6],1.77E+07
"CCOC(=O)C1OC1(C)c1ccccc1 (stereo not drawn) [ETHYL 2,3-EPDXY-3-PHENYLBUTANOATE]",Volatility,[1]; [10],12.97 μg/l air
same,Type,[1]; [11],Bottom
same,Odor Threshold,[2]; [10],2.28E−05 μg/l air
same,Odor Value,[2]; [10],5.68E+05
"CCOC(=O)CC1(C)OCCO1 [ETHYL 2-METHYL-1,3-DIOXOLANE-2-ACETATE]",Volatility,[1]; [10],479.20 μg/l air
same,Type,[1]; [11],"TOP (perfuming compounds having a volatility ranging from 70,000 to 100 μg/l in air are referred to as “top notes”)"
same,Volatility,[1]; [7],479.20 μg/l air
same,Type,[1]; [8],Top
same,Volatility,"[1]; Table 9, gourmand note",479.20 μg/l air
same,Type,[1]; [9],Top
same,Type,[1]; [3],Top
same,Volatility (μg/l air),[1]; [4],479.20 μg/l air
same,Odor Threshold,[2]; [7],1.62E−03 μg/l air
same,Odor Value,[2]; [7],2.95E+05
same,Odor Threshold,"[2]; Table 9, gourmand note",1.62E−03 μg/l air
same,Odor Threshold (μg/l air),[2]; [4],1.62E−03 μg/l air
"CCC=CCC=C/C=C/C(=O)OCC [ETHYL (2E)-2,4,7-DECATRIENOATE]",Volatility,[1]; [10],25.34 μg/l air
same,Type,[1]; [11],Bottom
same,Type,[1]; [3],Bottom
same,Volatility (μg/l air),[1]; [4],25.34 μg/l air
same,Odor Threshold,[2]; [10],1.49E−02 μg/l air
same,Odor Value,[2]; [10],1.70E+03
same,Odor Threshold (μg/l air),[2]; [4],1.49E−02 μg/l air
CCOC(=O)/C=C/c1ccccc1 [ETHYL (E)-3-PHENYL-2-PROPENOATE],Volatility,[1]; [10],20.55 μg/l air
same,Type,[1]; [11],Bottom
same,Odor Threshold,[2]; [10],2.38E−05 μg/l air
same,Odor Value,[2]; [10],8.62E+05
CCCC(=O)OCC [ETHYL BUTANOATE],Volatility,[1]; [10],142519.74 μg/l air
same,Type,[1]; [11],"TOP (perfuming compounds having a volatility ranging from 70,000 to 100 μg/l in air are referred to as “top notes”)"
same,Type,[1]; [3],Top
same,Volatility (μg/l air),[1]; [4],142519.74 μg/l air
same,Odor Threshold (μg/l air),[2]; [4],3.68E−04 μg/l air
CCCCCC(=O)OCC [ETHYL HEXANOATE],Volatility,[1]; [10],9675.10 μg/l air
same,Type,[1]; [11],"TOP (perfuming compounds having a volatility ranging from 70,000 to 100 μg/l in air are referred to as “top notes”)"
same,Volatility,[1]; [7],9675.10 μg/l air
same,Type,[1]; [8],Top
same,Volatility,"[1]; Table 9, gourmand note",9675.10 μg/l air
same,Type,[1]; [9],Top
same,Type,[1]; [3],Top
same,Volatility (μg/l air),[1]; [4],9675.10 μg/l air
same,Odor Threshold,[2]; [7],9.11E−04 μg/l air
same,Odor Value,[2]; [7],1.06E+07
same,Odor Threshold,"[2]; Table 9, gourmand note",9.11E−04 μg/l air
same,Odor Threshold (μg/l air),[2]; [4],9.11E−04 μg/l air
CCCCCCC=O [HEPTANAL],Type,[1]; [3],Top
same,Volatility (μg/l air),[1]; [4],22184.00 μg/l air
same,Odor Threshold (μg/l air),[2]; [4],2.03E−03 μg/l air
CCCCCC(=O)O [HEXANOIC ACID],Volatility,[1]; [7],197.90 μg/l air
same,Type,[1]; [8],Top
same,Volatility,"[1]; Table 9, gourmand note",197.90 μg/l air
same,Type,[1]; [9],Top
same,Type,[1]; [3],Top
same,Volatility (μg/l air),[1]; [4],197.90 μg/l air
same,Odor Threshold,[2]; [7],1.82E−02 μg/l air
same,Odor Value,[2]; [7],1.09E+04
same,Odor Threshold,"[2]; Table 9, gourmand note",1.82E−02 μg/l air
same,Odor Threshold (μg/l air),[2]; [4],1.82E−02 μg/l air
CCCCCCOC(=O)c1ccccc1O [HEXYL 2-HYDROXYBENZOATE],Volatility,[1]; [10],3.82 μg/l air
same,Type,[1]; [11],Bottom
same,Volatility (μg/l air),"[1]; Table 7, citrus note",3.82 μg/l air
same,Type,"[1]; Table 7, citrus note, top, middle or bottom note",Bottom
same,Type,[1]; [3],Bottom
same,Volatility (μg/l air),[1]; [4],3.82 μg/l air
same,Odor Threshold,[2]; [10],5.50E−03 μg/l air
same,Odor Value,[2]; [10],6.95E+02
same,Odor Threshold (μg/l air),"[2]; Table 7, citrus note",5.50E−03 μg/l air
same,Odor Value,"[2]; Table 7, citrus note, equals volatility divided by odor threshold",6.95E+02
same,Odor Threshold (μg/l air),[2]; [4],5.50E−03 μg/l air
CCCCCCOC(C)=O [HEXYL ACETATE],Volatility,[1]; [10],2316.04 μg/l air
same,Type,[1]; [11],"TOP (perfuming compounds having a volatility ranging from 70,000 to 100 μg/l in air are referred to as “top notes”)"
same,Type,[1]; [3],Top
same,Volatility (μg/l air),[1]; [4],2316.04 μg/l air
same,Odor Threshold (μg/l air),[2]; [4],1.32E−01 μg/l air
CCCCCCOC(=O)CCCCC [HEXYL HEXANOATE],Volatility,[1]; [10],105.52 μg/l air
same,Type,[1]; [11],"TOP (perfuming compounds having a volatility ranging from 70,000 to 100 μg/l in air are referred to as “top notes”)"
same,Odor Threshold,[2]; [10],9.98E−02 μg/l air
same,Odor Value,[2]; [10],1.06E+03
"COC(=O)c1c(C)cc(O)c(C)c1O [METHYL 2,4-DIHYDROXY-3,6-DIMETHYLBENZOATE]",Volatility (μg/l air),"[1]; Table 4, watery note",1.52 μg/l air
same,Type,[1]; [5],bottom (perfuming compounds having a volatility ranging from 49 to 0.1 μg/l in air are referred to as “bottom notes”)
same,Odor Threshold (μg/l air),"[2]; Table 4, watery note",4.89E−06 μg/l air
same,Odor Value,[2]; [6],3.11E+05
CCCCCCC#CC(=O)OC [METHYL 2-NONYNOATE],Volatility (μg/l air),"[1]; Table 4, watery note",91.76 μg/l air
same,Type,[1]; [5],middle (perfuming compounds having a volatility ranging from 99 to 50 μg/l in air are referred to as “middle notes”)
same,Type,[1]; [3],Middle
same,Volatility (μg/l air),[1]; [4],91.76 μg/l air
same,Odor Threshold (μg/l air),"[2]; Table 4, watery note",1.60E−03 μg/l air
same,Odor Value,[2]; [6],5.74E+04
same,Odor Threshold (μg/l air),[2]; [4],1.60E−03 μg/l air
CCCCCC#CC(=O)OC [METHYL 2-OCTYNOATE],Type,[1]; [3],Top
same,Volatility (μg/l air),[1]; [4],472.01 μg/l air
same,Odor Threshold (μg/l air),[2]; [4],8.31E−04 μg/l air
CCCCCC#CC(=O)OC [METHYL 2-OCTYNOATE″],Volatility (μg/l air),"[1]; Table 4, watery note",472.01 μg/l air
same,Type,[1]; [5],"TOP (perfuming compounds having a volatility ranging from 70,000 to 100 μg/l in air are referred to as “top notes”)"
same,Odor Threshold (μg/l air),"[2]; Table 4, watery note",8.31E−04 μg/l air
same,Odor Value,[2]; [6],5.68E+05
COC(=O)/C=C/c1ccccc1 [METHYL (E)-3-PHENYL-2-PROPENOATE],Volatility,[1]; [10],61.65 μg/l air
same,Type,[1]; [11],Middle
same,Odor Threshold,[2]; [10],3.13E−03 μg/l air
same,Odor Value,[2]; [10],1.97E+04
CCCCCC(=O)OC [METHYL HEXANOATE],Volatility,[1]; [10],23345.90 μg/l air
same,Type,[1]; [11],"TOP (perfuming compounds having a volatility ranging from 70,000 to 100 μg/l in air are referred to as “top notes”)"
same,Type,[1]; [3],Top
same,Volatility (μg/l air),[1]; [4],23345.90 μg/l air
same,Odor Threshold (μg/l air),[2]; [4],8.43E−02 μg/l air
COC(=O)Cc1ccccc1 [METHYL PHENYLACETATE],Volatility,[1]; [10],555.30 μg/l air
same,Type,[1]; [11],"TOP (perfuming compounds having a volatility ranging from 70,000 to 100 μg/l in air are referred to as “top notes”)"
same,Volatility,[1]; [7],555.30 μg/l air
same,Type,[1]; [8],Top
same,Volatility,"[1]; Table 9, gourmand note",555.30 μg/l air
same,Type,[1]; [9],Top
same,Odor Threshold,[2]; [7],3.21E−04 μg/l air
same,Odor Value,[2]; [7],1.73E+06
same,Odor Threshold,"[2]; Table 9, gourmand note",3.21E−04 μg/l air
